From patent publication US20240131168A1, “NAPHTHALENE RING-CONTAINING COMPOUND, PHARMACEUTICAL COMPOSITION CONTAINING SAME, AND USE THEREOF” (JIANGSU YAHONG MEDITECH CO., LTD., priority 2021, published 2024) come the findings set out here.

The structures appear in SMILES notation. Where two headings read alike, the source gives them in different places.

Assay type in all cases: cell-based
One experiment relates to MDA-MB-231. In words: CellTiter-Glo cell proliferation inhibition, MDA-MB-231. The settings on record: Homo sapiens, MDA-MB-231 (CTG), starting concentration 10 μM; for inhibition at up to 10 µM: read-out: IH % max (maximum inhibition percentage). The text has this:
(§1) 1. Cell line • (1) Breast cancer cell lines and their culture media: • MCF-7 (ATCC; Cat. No.: HTB-22), a Luminal A breast cancer cell; • TamR-MCF-7 (ATCC; Cat. No.: CRL-3435), a breast cancer cell; • MCF-7 ER^D538G: a Luminal A breast cancer cell obtained by constructing MCF-7 (ATCC; Cat. No.: HTB-22) using CRISPR-Cas9 gene editing technology; • MCF-7 ER^Y537S: a Luminal A breast cancer cell obtained by constructing MCF-7 (ATCC; Cat. No.: HTB-22) using CRISPR-Cas9 gene editing technology; • MDA-MB-231: (manufacturer: Nanjing CoBioer Biosciences Co., Ltd.), a triple-negative breast cancer cell; • MDA-MB-468: (manufacturer: Nanjing CoBioer Biosciences Co., Ltd.), a triple-negative breast cancer cell.
(§2) Herein, the culture medium of MCF-7, TamR-MCF-7, MCF-7 ER^D538G, and MCF-7 ER^Y537S was EMEM; • the culture medium of MDA-MB-231 and MDA-MB-468 was DMEM.
(§3) 2. Reagents • Culture medium EMEM (Gibco, 1964507) • Culture medium DMEM (Gibco, 12430-054) • Fetal bovine serum (Gibco, 10091148) • Penicillin-streptomycin double antibody (Gibco, S110JV) • DPBS (Gibco, 14190-144) • CellTiter-Glo® assay kit (Promega, G7573) • Trypsin (0.25%) (Gibco, 25200-056) • DMSO (Sigma, D2650)
(§4) 3. Instruments • Biosafety cabinet (AIRTECH, BSC-1300A II) • Automated cell counter (Life Technologies, countess II) • Multifunctional microplate reader (Biotek, H1FM) • Orbital shaker (Hangzhou Allsheng Instruments Co., Ltd., OS-100) • XLFIT 5.3 (Inforstack Shanghai Co., Ltd.)
(§5) For this test method, the following experiments were performed in a biosafety cabinet, with the specific steps as follows: • (1) Cells were inoculated in a 96-well plate. One day later, the previous culture medium was poured off, 5 mL of DPBS was added to wash the cells, and then DPBS was pipetted and discarded. An appropriate amount of trypsin was then added. The plate was digested in a 37° C., 5% CO2 cell incubator for about 2 to 5 minutes and then taken out. Anew corresponding culture medium was added, and pipetted up and down to resuspend the cells evenly. The cells were then counted using an automated cell counter. • (2) Each cell was inoculated in columns 1 to 11 of a 96-well plate (Corning, Cat. No.: 3610) at a density of 1,000 or 2,000 cells per well in 100 μL of culture medium, and 100 μL of the corresponding culture medium without cells was added to the wells in column 12. The plate was then placed in a 37° C., 5% CO2 incubator for 24 hours. • (3) The compound of the present disclosure and the control drug fulvestrant (Selleck; Cat. No.: S1191) were then 4-fold serially diluted to 10 dose points starting at 10 μM. 10 μL of the serially diluted compound was pipetted and added to 100 μL of cells in columns 1 to 10, and 10 μL of the corresponding culture medium containing 0.33 v % DMSO was added to both columns 11 and 12. The plate was incubated in a 37° C., 5% CO2 incubator for 6 days or 72 hours (Note: column 11 was used as a MAX well with cells but without compound; column 12 was used as a MIN well without cells […]). • (4) The cell viability detection reagent in the CellTiter-Glo® assay kit was then added to the 96-well plate at 50 μL per well according to the instructions, and shaken on an orbital shaker in the dark for 5 to 10 minutes. The cell viability was then measured using a multifunctional microplate reader. Finally, the inhibition of cell proliferation by the compound of the present disclosure was plotted by XLFIT software, and the IC50 value (half inhibitory concentration) and the IH % max (maximum inhibition percentage) of the compound of the present disclosure were calculated.
Compounds D64 to D69 were tested for MDA-MB-231 (CTG) and MDA-MB-468 (CTG) with an incubation time of 72 hours in the incubator.
In general terms: In ATP-based viability assays light output follows the ATP content of the culture.

Another experiment deals with MCF-7 ER^D538G. The experiment in a line: CellTiter-Glo cell proliferation inhibition, MCF-7 ER^D538G. The following applies: Homo sapiens, MCF7, 144 h, MCF-7 ER^D538G (CTG), 6 days, starting concentration 10 μM; for inhibition at up to 10 µM: read-out: IH % max (maximum inhibition percentage). The procedure, abridged:
(§6)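 MCF-7, TamR-MCF-7, and CRISPR-edited MCF-7 ER D538G or Y537S cells were seeded at 1,000 or 2,000 cells/well in EMEM and cultured 24 h. They were then exposed to a 4-fold, 10-point series (top 10 µM before addition to wells) for 6 days or 72 h at 37 °C. CellTiter-Glo luminescence gave IC50 and maximum % inhibition.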

The test system of the next experiment is MCF-7. In words: CellTiter-Glo cell proliferation inhibition, MCF-7 (Effect Example 2). The following applies: Homo sapiens, MCF7, 144 h, MCF-7 (CTG), 6 days, starting concentration 10 μM; for inhibition at up to 10 µM: read-out: IH % max (maximum inhibition percentage). An outline of the steps: as §6
For another experiment, the system named is MCF-7 ER^Y537S. In words: CellTiter-Glo cell proliferation inhibition, MCF-7 ER^Y537S. The following applies: Homo sapiens, MCF7, 144 h, MCF-7 ER^Y537S (CTG), 6 days, starting concentration 10 μM; for inhibition at up to 10 µM: read-out: IH % max (maximum inhibition percentage).
Excerpt: as §1, §2, §3, §4, §5

The next experiment concerns MDA-MB-468. The experiment in a line: CellTiter-Glo cell proliferation inhibition, MDA-MB-468. The following applies: Homo sapiens, MDA-MB-468 (CTG), starting concentration 10 μM; for inhibition at up to 10 µM: read-out: IH % max (maximum inhibition percentage).
A further experiment concerns TamR-MCF-7. In words: CellTiter-Glo cell proliferation inhibition, TamR-MCF-7. The settings on record: 144 h, TamR-MCF-7 (CTG), 6 days, starting concentration 10 μM; for inhibition at up to 10 µM: read-out: IH % max (maximum inhibition percentage).
Excerpt: as §1, §2, §3, §4, §5

[1] abbreviates: incubation time 72 hours (D64 to D69).

In the case of `C[C@@H]1CN(CCOCC(=O)Nc2cccc3c2CN(C2CCC(=O)NC2=O)C3=O)[C@@H](C)CN1CCOc1ccc(Oc2c(-c3ccc(S(C)(=O)=O)cc3)ccc3cc(O)ccc23)cc1` (stereo partly drawn) [Compound D25, N-(2-(2,6-dioxopiperidin-3-yl)-1-oxoisoindolin-4-yl)-2-(2-((2S,5R)-4-(2-(4-((6-hydroxy-2-(4-(methylsulfonyl)phenyl)naphthalen-1-yl)oxy)phenoxy)ethyl)-2,5-dimethylpiperazin-1-yl)ethoxy)acetamide], the inhibition at up to 10 µM in the experiment with MDA-MB-231 (144 h, 6 days) worked out at 53%; in the experiment on MCF-7 ER^D538G, 86%; in the experiment with MCF-7, 62%; with MCF-7 ER^Y537S, 59%; in the experiment with MDA-MB-468 (144 h, 6 days), 96%.
For the molecule `CS(=O)(=O)c1ccc(-c2ccc3cc(O)ccc3c2Oc2ccc(OCCN3CCN(c4ccc5c(c4)CN(C4CCC(=O)NC4=O)C5=O)CC3)cc2)cc1` (centres unmarked) [Compound D2, 3-(5-(4-(2-(4-((6-hydroxy-2-(4-(methylsulfonyl)phenyl)naphthalen-1-yl)oxy)phenoxy)ethyl)piperazin-1-yl)-1-oxoisoindolin-2-yl)piperidine-2,6-dione], the half-maximal inhibitory concentration (IC50) with MDA-MB-231 (144 h, 6 days) came to 5.1 nM; in the experiment with MCF-7 ER^D538G, 88.4 nM; with TamR-MCF-7, 37.4 nM; in the experiment with MCF-7, 27.7 nM; with MCF-7 ER^Y537S it was 968 nM; in the experiment with MDA-MB-468 (144 h, 6 days), 5.8 nM. Besides, the inhibition at up to 10 µM with MDA-MB-231 (144 h, 6 days) was found to be 100%; in the experiment with MCF-7 ER^D538G it was 93%; in the experiment with TamR-MCF-7, 94%; in the experiment on MCF-7, 100%; in the experiment with MCF-7 ER^Y537S, 80%; in the experiment with MDA-MB-468 (144 h, 6 days), 99%.
`CNC(=O)c1ccc(-c2ccc3ccccc3c2Oc2ccc(OC(=O)N3CCN(c4ccc5c(c4)CN(C4CCC(=O)NC4=O)C5=O)CC3)cc2)cc1` (centres unmarked) [Compound D69, 4-((2-(4-(methylcarbamoyl)phenyl)naphthalen-1-yl)oxy)phenyl 4-(2-(2,6-dioxopiperidin-3-yl)-1-oxoisoindolin-5-yl)piperazine-1-carboxylate]: in the experiment on MDA-MB-231 (setting [1]), it took 2.2 nM to reach half-maximal inhibition (IC50) and the inhibition at up to 10 µM came to 91.7%. Besides, in the experiment with MDA-MB-468 (setting [1]), 2.7 nM corresponded to half-maximal inhibition (IC50) and the inhibition at up to 10 µM was 92.8%.
Regarding `CCN(CCOCCOc1cccc2c1C(=O)N(C1CCC(=O)NC1=O)C2=O)CCOc1ccc(Oc2c(-c3ccc(S(C)(=O)=O)cc3)ccc3cc(O)ccc23)cc1` (centres unmarked) [Compound D18, 2-(2,6-dioxopiperidin-3-yl)-4-(2-(2-(ethyl(2-(4-((6-hydroxy-2-(4-(methylsulfonyl)phenyl)naphthalen-1-yl)oxy)phenoxy)ethyl)amino)ethoxy)ethoxy)isoindoline-1,3-dione], the inhibition at up to 10 µM in the experiment on MDA-MB-231 (144 h, 6 days) amounted to 41%; with MCF-7 ER^D538G it was 81%; in the experiment on MCF-7, 39%; in the experiment with MCF-7 ER^Y537S it was 67%.
For `CCN(CCOCCOCC(=O)N1CCN(c2cccc3c2CN(C2CCC(=O)NC2=O)C3=O)CC1)CCOc1ccc(Oc2c(-c3ccc(S(C)(=O)=O)cc3)ccc3cc(O)ccc23)cc1` (centres unmarked) [Compound D47], the inhibition at up to 10 µM in the experiment with MDA-MB-231 (144 h, 6 days) is 83%; in the experiment with MCF-7 ER^D538G, 89%; with MCF-7, 31%; in the experiment on MCF-7 ER^Y537S, 73%; in the experiment with MDA-MB-468 (144 h, 6 days) it was 94%. For the same molecule, the 50% inhibitory concentration (IC50) in the experiment with MCF-7 ER^D538G was found to be 830 nM.
In the case of `CCN(CCNc1cccc2c1CN(C1CCC(=O)NC1=O)C2=O)CCOc1ccc(Oc2c(-c3ccc(S(C)(=O)=O)cc3)ccc3cc(O)ccc23)cc1` (centres unmarked) [Compound D17, 3-(4-((2-(ethyl(2-(4-((6-hydroxy-2-(4-(methylsulfonyl)phenyl)naphthalen-1-yl)oxy)phenoxy)ethyl)amino)ethyl)amino)-1-oxoisoindolin-2-yl)piperidine-2,6-dione], the inhibition at up to 10 µM in the experiment on MDA-MB-231 (144 h, 6 days) is 87%; in the experiment with MCF-7 ER^D538G, 86%; in the experiment with TamR-MCF-7, 39%; in the experiment on MCF-7 it was 58%; in the experiment with MCF-7 ER^Y537S it was 77%.
For the molecule `O=C1CCC(N2Cc3cc(N4CCN(CCOc5ccc(Oc6c(-c7ccc(C(=O)N8CCCC8)cc7)ccc7cc(O)ccc67)cc5)CC4)ccc3C2=O)C(=O)N1` (centres unmarked) [Compound D65, 3-(5-(4-(2-(4-((6-hydroxy-2-(4-(pyrrolidine-1-carbonyl)phenyl)naphthalen-1-yl)oxy)phenoxy)ethyl)piperazin-1-yl)-1-oxoisoindolin-2-yl)piperidine-2,6-dione], in the experiment on MDA-MB-231 (setting [1]), it took 3.6 nM to reach half-maximal inhibition (IC50) and the inhibition at up to 10 µM came to 83.6%. Besides, in the experiment on MDA-MB-468 (setting [1]), the IC50 was 29 nM and the inhibition at up to 10 µM worked out at 83.6%.
For the molecule `CS(=O)(=O)c1ccc(-c2ccc3ccccc3c2Oc2ccc(OC(=O)N3CCN(c4ccc5c(c4)CN(C4CCC(=O)NC4=O)C5=O)CC3)cc2)cc1` (centres unmarked) [Compound D66, 4-((2-(4-(methylsulfonyl)phenyl)naphthalen-1-yl)oxy)phenyl 4-(2-(2,6-dioxopiperidin-3-yl)-1-oxoisoindolin-5-yl)piperazine-1-carboxylate], in the experiment with MDA-MB-231 (setting [1]), the midpoint of inhibition, the IC50, lay at 1.4 nM and the inhibition at up to 10 µM came to 85.4%. Moreover, in the experiment on MDA-MB-468 (setting [1]), it took 2.2 nM to reach half-maximal inhibition (IC50) and the inhibition at up to 10 µM is 90.6%.

One may read the inhibition as the relative decrease from the control value, in per cent. As usually defined, the IC50 is the midpoint of a concentration-inhibition curve.
